Patent US4543256A, “(-)-10,1L Methylenedioxy-N-N-propylnoraporphine and methods employing it for inhibiting the effects of epileptic seizures and for prevention and treatment of duodenal ulcers” (Northeastern University, priority 1982, dated 1985)
Entries after “also recorded” stand apart in the source; their conditions may differ. Counter-ions that a name gives are not always drawn.

How the values were obtained:
rats [1] = assay: Locomotor (general motor) activity, electronic activity monitor; format: in vivo, rat (male Sprague-Dawley)
Method: (§1) Male Sprague-Dawley (Charles River Labs.) rats (initially 175-200 g) were housed four per cage, with free access to food and water, under controlled lighting (on 7:00 a.m. to 7:00 p.m.), constant temperature 21°-23° C. and controlled humidity (40-50%). Aporphines were administered, as described below, freshly dissolved in 1 mM citric acid mixed with 0.9% (w/v) saline (1:4, vols.); this solvent was also used as a vehicle ("placebo") control. Haloperidol was given in the same medium; 2-diethyl aminoethyl-2,2 diphenylvalerate HCl (SKF-525A) was given in saline.
Locomotor activity was evaluated by use of a printing electronic activity monitor (EAM, Stoelting Co., Chicago, IL) within a sound-attenuated chamber, typically for 60 min., as described previously (Stewart, Campbell, Sperk and Baldessarini, 1979, Psychopharmacology 60 281-289; Campbell and Baldessarini, 1981a, Psychopharmacology 73:219-222.
(§2) In all experiments except those which evaluated the time-course of drug effects, rats were given an injection of vehicle and then allowed to rest for 15 min. to adapt to nonspecific arousal effects, prior to a second injection of test agent (or placebo) and immediate behavioral testing. Behavioral data were evaluated by Student's t-test and are always expressed as mean ±SEM.
Data are mean values ±SEM (N=4 to 8 rats per condition). Animals were pretreated with SKF-525A (40 mg/kg, i.p.) or its vehicle 30 min before MDO-NPA (in the doses noted, from 0 to 3 mg/kg, i.p.). Activity was then monitored electronically for an hour after the low doses of MDO-NPA (data in counts/hour), or rated for stereotypy every 10 min for an hour after higher doses. N.D. indicates "not determined." (*) Indicates a significant difference by t-test between control and oxidase inhibitor-pretreated rats (p<0.01).
Data are mean values ±SEM (N=3 to 6 rats per condition) for effects of seven aporphine compounds (R=substituents, keyed to the structure above). Full chemical names for all compounds are provided in Methods. Ratings are expressed as percent of the maximum possible score (100%)=18.0) of stereotypy (Placebo-injected controls yielded scores of 4.4±2.5%); and as the percent of control locomotor activity (100%=430±86 counts/hr). Data are provided for a dose of 10 mg/kg (i.p.), although doses of 1 and 5 mg/kg were also tested.

duodenal ulcers = assay: Cysteamine-induced duodenal ulcer in the rat; settings: for Duodenal Ulcer Intensity (Scale: 0-3): control 1.8; for Duodenal Ulcer Incidence (Positive/Total): control 10/12
rats [2] = assay: Stereotyped behavior of rats (rating scale; score, onset and duration); format: in vivo, rat (male Sprague-Dawley); settings: for Duration of Effect (stereotypy): complete when scores ≤3; for Stereotypy Score for 30 min after MDO--NPA: maximum possible 18.0, N=5
Method: as §1
Stereotyped behavior was evaluated by a trained observer according to a rating scale method reported previously (Campbell and Baldessarini, 1981a). Briefly, the ratings were as follows: 0, no stereotypy, normal locomotion; 1, discontinuous sniffing, reduced locomotion; 2, continuous sniffing, only periodic exploration; 3, continuous sniffing, mouth movements, infrequent, exploratory activity, Ratings were made each 10 min. by observation for 30 sec, typically for 60 min. (maximum score=18.0/hour).
as §2
Data are mean values ±SEM for N=6 rats per group given doses of each aporphine (1mg/kg/, or approximately 3 umole/kg) by orogastric intubation (P.O.), or subcutaneous (S.C.) or intraperitoneal (I.P.) injection. Stereotypy was rated for one hour as described in Methods and duration is defined as complete when scores diminished to ≤3 (out of a maximum possible score of 18).
Data are mean values ±SEM (N=4 to 8 rats per condition). […] N.D. indicates "not determined." (*) Indicates a significant difference by t-test between control and oxidase inhibitor-pretreated rats (p<0.01).
Stereotypy was rated for 60 min as described in Methods. Data are means SEM (stereotypy scores, when 18=maximum in 1 hour) for N=6 rats per group; (*) indicates p<0.0001 by t test.
Data are mean values ±SEM (N=3 to 6 rats per condition) for effects of seven aporphine compounds (R=substituents, keyed to the structure above). Full chemical names for all compounds are provided in Methods. […] Data are provided for a dose of 10 mg/kg (i.p.), although doses of 1 and 5 mg/kg were also tested.

gastric acid output = assay: Cysteamine induced gastric acid output; format: in vivo, rat; settings: for INITIAL OUTPUT (gastric acid): at opening of gastric fistula, control 187 ± 20; for Gastric acid output, 1 hr: control 68 ± 17; for Gastric acid output, 6 hr: control 91 ± 12; for Gastric acid output, 7 hr: control 99 ± 10; for Gastric acid output, 5 hr: control 104 ± 18; for Gastric acid output, 4 hr: control 110 ± 25; for Gastric acid output, 3 hr: control 141 ± 32; for Gastric acid output, 2 hr: control 195 ± 48; for TOTAL OUTPUT (gastric acid): control 1043 ± 102
Method: (A) In addition, rats of all groups were given cysteamine HCL, 15 mg. 100
g p.o. × 1, 30 min. after (the last dose of) MDO--NPA.
(B) At the opening of gastric fistula

[3] = 50 μg/100g s.c. once daily seven days
[4] = 100 μg/100g s.c. once daily seven days
[5] = group 3: 0.1 mg/100 g × 1 day, 1 week
[6] = group 3: 0.1 mg/100 g × 1 day, 1 week, P < 0.01
[7] = group 3: 0.1 mg/100 g × 1 day, 1 week, P < 0.001
[8] = group 3: 0.1 mg/100 g × 1 day, 1 week, P < 0.09

CCCN1CCc2cccc3c2[C@H]1Cc1ccc2c(c1-3)OCO2 [MDO-NPA, (-) 10, 11-methylenedioxy-N-n-propylnoraporphine-HCl]
minimal effective dose (rats [1]; Rattus norvegicus, ip, read-out: dose producing increases in general motor activity): > 2 µmol/kg | Activity (rats [1]; SKF-525A 40 mg/kg i.p. 30 min before MDO-NPA 0.05 mg/kg i.p., p<0.01 vs control): 425 ± 40 counts/hour | Activity (rats [1]; SKF-525A 40 mg/kg i.p. 30 min before MDO-NPA 0.10 mg/kg i.p., p<0.01 vs control): 415 ± 29 counts/hour | Activity (rats [1]; SKF-525A 40 mg/kg i.p. 30 min before MDO-NPA 0.20 mg/kg i.p., p<0.01 vs control): 410 ± 32 counts/hour | Activity (rats [1]; SKF-525A 40 mg/kg i.p. 30 min before MDO-NPA 0.30 mg/kg i.p.): 440 ± 38 counts/hour | Activity (rats [1]; control (vehicle pretreated), MDO-NPA 0.05 mg/kg i.p.): 190 ± 20 counts/hour | Activity (rats [1]; control (vehicle pretreated), MDO-NPA 0.10 mg/kg i.p.): 130 ± 30 counts/hour | Activity (rats [1]; control (vehicle pretreated), MDO-NPA 0.20 mg/kg i.p.): 260 ± 33 counts/hour | Activity (rats [1]; control (vehicle pretreated), MDO-NPA 0.30 mg/kg i.p.): 435 ± 29 counts/hour | dose of maximum effect, inhibition of locomotor activity (rats [1]; i.p., about 0.1 mg/kg): 0.3 µmol/kg | Duodenal Ulcer Intensity (Scale: 0-3) (duodenal ulcers; [3]): 0.8 | Duodenal Ulcer Incidence (Positive/Total) (duodenal ulcers; [3]): 4/6 | Duodenal Ulcer Intensity (Scale: 0-3) (duodenal ulcers; [4]): 0.5 | Duodenal Ulcer Incidence (Positive/Total) (duodenal ulcers; [4]): 3/6 | effect on incidence and intensity of duodenal ulcers and gastric acid output, oral (duodenal ulcers; administered orally): reduces the incidence and intensity of duodenal ulcers and the gastric acid output | dose effective in preventing ulcers (duodenal ulcers; once daily for seven days before cysteamine-hydrochloride): 50 micrograms per hundred grams of body weight | effect on cysteamine-induced duodenal ulcers (duodenal ulcers; rats given cysteamine): significant prevention of experimental duodenal ulcers; also recorded: virtually abolished | effect of a single high dose on duodenal ulcers (duodenal ulcers; single high dose): active | Stereotypy Score (rats [2]; 1 mg/kg I.P., rated one hour, maximum 18, N=6, mean ±SEM): 16.5 ± 0.8 | Duration of Effect (stereotypy) (rats [2]; 1 mg/kg I.P.): 116 ± 12 min | Duration of Effect (stereotypy) (rats [2]; 1 mg/kg P.O.): 112 ± 20 min | Stereotypy Score (rats [2]; 1 mg/kg S.C., rated one hour, maximum 18, N=6, mean ±SEM): 17.5 ± 0.4 | Duration of Effect (stereotypy) (rats [2]; 1 mg/kg S.C.): 106 ± 10 min | Stereotypy Score for 30 min after MDO--NPA (rats [2]; 1 mg/kg i.p.): 16.5 ± 1.2 | Stereotypy Score for 30 min after MDO--NPA (rats [2]; 1 mg/kg p.o.): 15.5 ± 1.6 | Stereotypy Score (rats [2]; MDO-NPA 0.3 mg/kg, haloperidol 0, 60 min, maximum 18, N=6): 11.6 ± 0.8 | Stereotypy Score (rats [2]; MDO-NPA 0.3 mg/kg, haloperidol 0.3 mg/kg 30 min before, p<0.0001): 0.3 ± 0.2 | Stereotypy Score (rats [2]; MDO-NPA 0.3 mg/kg, haloperidol 1.0 mg/kg 30 min before, p<0.0001): 0.3 ± 0.2 | Stereotypy Score (rats [2]; MDO-NPA 1.0 mg/kg, haloperidol 0, 60 min, maximum 18, N=6): 16.6 ± 0.4 | Stereotypy Score (rats [2]; MDO-NPA 1.0 mg/kg, haloperidol 0.3 mg/kg 30 min before, p<0.0001): 0.5 ± 0.2 | Stereotypy Score (rats [2]; MDO-NPA 1.0 mg/kg, haloperidol 1.0 mg/kg 30 min before, p<0.0001): 1.2 ± 0.4 | Stereotypy (rats [2]; SKF-525A 40 mg/kg i.p. before MDO-NPA 0.30 mg/kg i.p., p<0.01 vs control): 1.7 ± 0.6 | Stereotypy (rats [2]; SKF-525A 40 mg/kg i.p. before MDO-NPA 1.0 mg/kg i.p., p<0.01 vs control): 0.8 ± 0.2 | Stereotypy (rats [2]; SKF-525A 40 mg/kg i.p. before MDO-NPA 3.0 mg/kg i.p., p<0.01 vs control): 0.8 ± 0.5 | Stereotypy (rats [2]; control (vehicle pretreated), MDO-NPA 0.30 mg/kg i.p., score over one hour): 12.8 ± 0.6 | Stereotypy (rats [2]; control (vehicle pretreated), MDO-NPA 1.0 mg/kg i.p., score over one hour): 16.5 ± 0.1 | Stereotypy (rats [2]; control (vehicle pretreated), MDO-NPA 3.0 mg/kg i.p., score over one hour): 16.2 ± 0.9 | dependence of duration of action on dose (rats [2]; i.p.): consistent increase in duration of action with increased dose | duration of stereotyped behavioral effects vs other agents (rats [2]; i.p., for MDO-NPA at doses above 1 μmole/kg): exceeded that of NPA | INITIAL OUTPUT (gastric acid) (gastric acid output; group 2: × 1 day, P < 0.001): 47 ± 13 μ Eq | Gastric acid output, 1 hr (gastric acid output; group 2: × 1 day): 28 ± 18 μ Eq | Gastric acid output, 6 hr (gastric acid output; group 2: × 1 day, P < 0.01): 20 ± 11 μ Eq | Gastric acid output, 7 hr (gastric acid output; group 2: × 1 day, P < 0.001): 18 ± 6 μ Eq | Gastric acid output, 5 hr (gastric acid output; group 2: × 1 day, P < 0.01): 10 ± 3 μ Eq | Gastric acid output, 4 hr (gastric acid output; group 2: × 1 day, P < 0.09): 17 ± 8 μ Eq | Gastric acid output, 3 hr (gastric acid output; group 2: × 1 day): 81 ± 40 μ Eq | Gastric acid output, 2 hr (gastric acid output; group 2: × 1 day): 66 ± 29 μ Eq | TOTAL OUTPUT (gastric acid) (gastric acid output; group 2: × 1 day, P < 0.001): 288 ± 67 μ Eq | INITIAL OUTPUT (gastric acid) (gastric acid output; [5]): 120 ± 36 μ Eq | Gastric acid output, 1 hr (gastric acid output; [5]): 29 + 10 μ Eq | Gastric acid output, 6 hr (gastric acid output; [6]): 18 ± 14 μ Eq | Gastric acid output, 7 hr (gastric acid output; [7]): 9 ± 4 μ Eq | Gastric acid output, 5 hr (gastric acid output; [6]): 17 ± 7 μ Eq | Gastric acid output, 4 hr (gastric acid output; [6]): 14 ± 6 μ Eq | Gastric acid output, 3 hr (gastric acid output; [8]): 36 ± 9 μ Eq | Gastric acid output, 2 hr (gastric acid output; [8]): 66 + 21 μ Eq | TOTAL OUTPUT (gastric acid) (gastric acid output; [7]): 306 ± 62 μ Eq
